Reference: patent publication US7388070B1, “Structure-based approach to design of inhibitors of protein-processivity factor interactions” (priority 1999, dated 2008)

Experiments:
[1] = CD spectroscopy, helicity from ellipticity at 222 nm; format: physicochemical; settings: calculated from ellipticity values at 222 nm from CD measurements
Experimental: CD spectroscopy was performed in order to determine if the peptides with the least inhibitory activity were altered structurally. […] Therefore, the lack of inhibitory activity of these two mutants may be at least in part due to alterations in structure.
Lyophilized peptides were resuspended in 10 mM KF and adjusted to pH 8 with KOH. Spectra were recorded at the indicated peptide concentrations with an Aviv 62DS SpectroPolarimeter at 0° C. in a 0.1 cm pathlength cuvette. Wavelength scans were recorded at 1 nm intervals with a 5 second averaging time, and 5 to 10 scans were averaged. Peptide concentrations were determined by quantitative amino acid analysis. Unfolding curves were obtained by monitoring mean residue ellipticity at 222 nm as a function of the concentration of guanidine-HCl and temperature.

HSV Pol and UL42 = biological target: T1, HSV Pol and UL42 (Human herpesvirus 1, UniProt P10226); experiment: Inhibition of UL42-mediated long-chain DNA synthesis (polymerase assay, poly(dA)/oligo(dT) primer/template); format: biochemical
T1 construct: made in house; host or cells: insect cells infected with recombinant baculoviruses
T1 sequence (P10226 whole entry): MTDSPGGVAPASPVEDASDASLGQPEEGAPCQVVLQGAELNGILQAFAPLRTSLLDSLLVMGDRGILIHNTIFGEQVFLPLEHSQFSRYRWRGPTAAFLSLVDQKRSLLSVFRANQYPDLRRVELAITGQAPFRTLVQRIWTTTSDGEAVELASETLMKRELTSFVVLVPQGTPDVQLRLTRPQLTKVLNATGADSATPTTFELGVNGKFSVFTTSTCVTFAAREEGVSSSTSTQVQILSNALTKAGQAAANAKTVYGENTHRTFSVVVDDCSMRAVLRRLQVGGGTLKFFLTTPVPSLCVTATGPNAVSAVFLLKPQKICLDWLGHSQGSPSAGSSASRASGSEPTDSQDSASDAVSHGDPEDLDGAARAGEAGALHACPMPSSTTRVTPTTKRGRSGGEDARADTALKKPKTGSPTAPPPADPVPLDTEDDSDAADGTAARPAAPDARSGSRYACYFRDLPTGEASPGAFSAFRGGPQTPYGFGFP
From the text: To perform structure-activity studies, “alanine scan” mutants of peptide E, in which each non-alanine residue was individually converted to an alanine, were synthesized and tested for their ability to inhibit long-chain DNA synthesis by Pol and UTL42. A poly(dA)/oligo(dT15) template/primer was employed. On this primer/template, Pol alone adds only one or two bases, but when UL42 is present, longer DNA products are formed. DNA products greater than 18 bases were quantified at varying peptide concentrations and expressed as a percentage of products formed by Pol/UL42 in the presence of vehicle control.
Reaction mixtures contained 50 mM Tris-Cl (pH 7.6), 100 mM (NH4)2SO4, 3 mM MgCl2, 0.1 mM EDTA, 1 mM dithiothreitol, 0.1 μg BSA, 4% glycerol, 0.25 μg of poly(dA)-oligo(dT) primer/template, […] [^32P]-TTP (5 Ci/mMol), 100 fmol of HSV Pol, 200 fmol of UL42 and varying concentrations of peptide inhibitors in a final volume of 25 μL. Reactions were carried out at 37° C. for 5 to 10 minutes. Reactions were stopped by placing them on ice and adding 5 μL of alkaline loading buffer (2 mM EDTA, 50 mM NaOH, 2.5% glycerol, 0.025% bromcresol green) and were then loaded onto a 4% alkaline agarose gel. Gels were dried overnight and used to expose film and phosphoresence screens. Because Pol alone added only 1-2 nucleotides to the 15 base primer, newly synthesized DNA larger than 18 bases was defined as long-chain and quantified using a Molecular Dynamics Phosphorimager.

Question: For `CSCC[C@H](NC(=O)[C@H](CCCNC(=N)N)NC(=O)[C@H](CCCNC(=N)N)NC(=O)[C@@H](NC(=O)[C@H](CCC(=O)O)NC(=O)[C@H](CCC(=O)O)NC(=O)[C@H](C)NC(=O)[C@@H](NC(=O)[C@H](C)NC(=O)CNC(=O)[C@H](C)NC(=O)CNC(=O)[C@@H](NC(=O)[C@H](C)NC(=O)CNC(=O)[C@H](Cc1ccccc1)NC(=O)CNC(=O)[C@H](C)NC(=O)[C@H](C)NC(=O)[C@H](CCCNC(=N)N)NC(=O)[C@H](CC(C)C)NC(=O)[C@H](CCCNC(=N)N)NC(=O)[C@H](C)NC(=O)[C@H](C)NC(=O)[C@@H](NC(=O)[C@H](CC(=O)O)NC(=O)[C@H](CC(=O)O)NC(C)=O)C(C)C)C(C)C)[C@@H](C)O)[C@@H](C)O)C(=O)N[C@@H](CC(C)C)C(=O)N[C@@H](Cc1c[nH]cn1)C(=O)N[C@@H](CCCNC(=N)N)C(=O)N[C@@H](C)C(=O)N[C@@H](Cc1ccccc1)C(=O)N[C@@H](CC(=O)O)C(=O)N[C@H](C(=O)N[C@@H](CC(C)C)C(=O)N[C@@H](C)C(=O)O)[C@@H](C)O` [Peptide A], which “% Helicity” value [1] is on record?
Answer: 20%

Question: For `CSCC[C@H](NC(=O)[C@H](CCCNC(=N)N)NC(=O)[C@H](CCCNC(=N)N)NC(=O)[C@@H](NC(=O)[C@H](CCC(=O)O)NC(=O)[C@H](C)NC(=O)[C@H](C)NC(=O)[C@@H](NC(=O)[C@H](C)N)[C@@H](C)O)[C@@H](C)O)C(=O)N[C@@H](CC(C)C)C(=O)N[C@@H](Cc1c[nH]cn1)C(=O)N[C@@H](CCCNC(=N)N)C(=O)N[C@@H](C)C(=O)N[C@@H](Cc1ccccc1)C(=O)N[C@@H](CC(=O)O)C(=O)N[C@H](C(=O)N[C@@H](CC(C)C)C(=O)N[C@@H](C)C(=O)O)[C@@H](C)O` [Peptide E22A], which IC50 (HSV Pol and UL42) is on record?
Answer: > 100 µM

Question: With `CSCC[C@H](NC(=O)[C@H](CCCNC(=N)N)NC(=O)[C@H](CCCNC(=N)N)NC(=O)[C@@H](NC(=O)[C@H](CCC(=O)O)NC(=O)[C@H](CCC(=O)O)NC(=O)[C@H](C)NC(=O)[C@@H](NC(=O)[C@H](C)NC(C)=O)[C@@H](C)O)[C@@H](C)O)C(=O)N[C@@H](CC(C)C)C(=O)N[C@@H](Cc1c[nH]cn1)C(=O)N[C@@H](CCCNC(=N)N)C(=O)N[C@@H](C)C(=O)N[C@@H](C)C(=O)N[C@@H](CC(=O)O)C(=O)N[C@H](C(=O)N[C@@H](CC(C)C)C(=O)N[C@@H](C)C(N)=O)[C@@H](C)O` [Peptide F32A] as the compound, how does the IC50 (HSV Pol and UL42) read?
Answer: > 100 µM

Question: What about the “% Helicity” value [1] of the same compound?
Answer: 28%

Question: Which IC50 (HSV Pol and UL42) does the source give for `CSCC[C@H](NC(=O)[C@H](CCCNC(=N)N)NC(=O)[C@H](CCCNC(=N)N)NC(=O)[C@@H](NC(=O)[C@H](CCC(=O)O)NC(=O)[C@H](CCC(=O)O)NC(=O)[C@H](C)NC(=O)[C@H](C)NC(=O)[C@H](C)NC(C)=O)[C@@H](C)O)C(=O)N[C@@H](CC(C)C)C(=O)N[C@@H](Cc1c[nH]cn1)C(=O)N[C@@H](CCCNC(=N)N)C(=O)N[C@@H](C)C(=O)N[C@@H](Cc1ccccc1)C(=O)N[C@@H](CC(=O)O)C(=O)N[C@H](C(=O)N[C@@H](CC(C)C)C(=O)N[C@@H](C)C(N)=O)[C@@H](C)O` [Peptide T20A] here?
Answer: > 100 µM

Question: What about the “% Helicity” value [1] of the same compound?
Answer: 16%

Question: For “Ac-ATAEETRRALHRAFDTLA-NH2 (N-terminus and C-terminus assumed) [Peptide M27A]”, which IC50 (HSV Pol and UL42) is on record?
Answer: > 100 µM

Question: With “Ac-ATAEETRRMLARAFDTLA-NH2 (N-terminus and C-terminus assumed) [Peptide H29A]” as the compound, how does the IC50 (HSV Pol and UL42) read?
Answer: > 100 µM

Question: And the “% Helicity” value [1]?
Answer: 25%

Question: For “Ac-ATAEETRRMLHAAFDTLA-NH2 (N-terminus and C-terminus assumed) [Peptide R30A]”, which IC50 (HSV Pol and UL42) is on record?
Answer: > 100 µM

Question: And the “% Helicity” value [1]?
Answer: 26%
